Columns and labels:
[1] = system: hepatic disorder caused by carbon tetrachloride (liver injury, plasma glutamic pyruvic transaminase); assay: Effect of suppressing hepatic disorder caused by carbon tetrachloride; assay type: in vivo, mice (dd-strain, male); set-up: key to Liver injury index: liver injury index 0 = healthy, 2 slight, 4 evident, 6 serious injury; details: 30 mg/kg oral, 6 h before CCl4 0.05 ml/kg oral, 24 h after CCl4, mean of five mice; for Liver injury index: 0 healthy, 2 slightly affected, 4 evident injury, 6 serious injury; for p-GPT (plasma glutamic pyruvic transaminase activity): Reitman-Frankel, Karmen Units, >=2,100 calculated as 2,100
Protocol: Test Example 1 Effect of suppressing hepatic disorder caused by carbon tetrachloride. Test Method […] Six hours thereafter, carbon tetrachloride was orally administered in a proportion of 0.05 ml/kg. The animals were sacrificed 24 hours after the administration of carbon tetrachloride, and the extent of liver injury was grossly examined. On the other hand, blood was collected from the animal at the time of the sacrifice, and centrifuged to obtain plasma. The plasma glutamic pyruvic transminase (GPT) activity was determined according to the method of Reitman-Frankel. The activity was expressed in terms of Karmen Units (K.U.). The conditions of the liver were expressed in terms of liver injury index as follows. […] When the GPT activity was 2,100 units or higher, […], and the activity was calculated as 2,100 units for reasons of convenience.

[2] = acute oral toxicity to male rat (LD50); details: in vivo
Protocol: For example, LD50 value (acute oral toxicity to male rat) of the compound No. 20 is more than 1,000 mg/kg.

| Compound | Liver injury index [1] | p-GPT (plasma glutamic pyruvic transaminase activity) [1] | LD50 [2] [mg/kg] |
| --- | --- | --- | --- |
| CCOC(=O)C(C(=O)OC(C)(C)C)=C1SC2C(S1)N(CC)CCN2CC (stereo not drawn) [Compound 72] | 0.4 | 428.6 K.U. |  |
| CCCOC(=O)C(C(=O)OCCC)=C1SC2NCCNC2S1 (stereo not drawn) [Compound 3] | 0.1 | 53.0 K.U. |  |
| CC(C)OC(=O)C(C(=O)OC(C)c1ccc(Cl)cc1Cl)=C1SC2C(S1)N(C)CCN2C (stereo not drawn) [Compound 79] | 1.4 | 1,060 K.U. |  |
| CCCCOC(=O)C(C(=O)OCCCC)=C1SC2C(S1)N(CC)CCN2CC (stereo not drawn) [Compound 30] | 0.8 | 22.8 K.U. |  |
| C=CCOC(=O)C(C(=O)OCC=C)=C1SC2C(S1)N(CC=C)CCN2CC=C (stereo not drawn) [Compound 49] | 1.2 | 23.8 K.U. |  |
| CCC(COC)OC(=O)C(C(=O)OC(CC)COC)=C1SC2C(S1)N(C)CCN2C (stereo not drawn) [Compound 63] | 0.5 | 32.8 K.U. |  |
| CC(C)OC(=O)C(C(=O)OC(C)C)=C1SC2NCCNC2S1 (stereo not drawn) [Compound 2, Diisopropyl(2,5-diaza-7,9-dithiabicyclo-[4,3,0]-nonane-8-ylidene)malonate] | 0.3 | 24.4 K.U. |  |
| COC(=O)C(C(=O)OC)=C1SC2C(S1)N(C)CCN2C (stereo not drawn) [Compound 18] | 1.8 | 166 K.U. |  |
| CCCOC(=O)C(C(=O)OCCC)=C1SC2C(S1)N(C)CCN2C (stereo not drawn) [Compound 20] |  |  | > 1000 |
| CCN1CCN(CC)C2SC(=C(C(=O)OC)C(=O)OC)SC21 (stereo not drawn) [Compound 25] | 0.4 | 13.2 K.U. |  |
| CCN1CCN(CC)C2SC(=C(C(=O)OC(C)(C)C)C(=O)OC(C)(C)C)SC21 (stereo not drawn) [Compound 40] | 1.8 | 164 K.U. |  |
| CCCCOC(=O)C(C(=O)OC(C)C)=C1SC2C(S1)N(CC)CCN2CC (stereo not drawn) [Compound 68] | 1.5 | 914.6 K.U. |  |
| CC(C)OC(=O)C(C(=O)OC(C)C)=C1SC2C(S1)N(C)CCN2C (stereo not drawn) [Compound 94] | 2.0 | 1,534 K.U. |  |
| Cc1ccc(COC(=O)C(C(=O)OC(C)C)=C2SC3C(S2)N(C)CCN3C)cc1 (stereo not drawn) [Compound 74] | 0.6 | 25 K.U. |  |
| CC(C)OC(=O)C(C(=O)OC(C)C)=C1SC2N(C)CCN(C)C2(C)S1 (stereo not drawn) [Compound 28] | 1.5 | 547 K.U. |  |
| CCC(C)OC(=O)C(C(=O)OC(C)CC)=C1SC2NCCNC2S1 (stereo not drawn) [Compound 87] | 0.2 | 21 K.U. |  |
| CCCOC(=O)C(C(=O)OCCC)=C1SC2C(S1)N(CC)CCN2CC (stereo not drawn) [Compound 37] | 1.4 | 143 K.U. |  |
| CCOC(=O)C(C(=O)OCC(C)C)=C1SC2C(S1)N(CC)CCN2CC (stereo not drawn) [Compound 67] | 2.5 | 1,620 K.U. |  |

| Compound | Liver injury index [1] | p-GPT (plasma glutamic pyruvic transaminase activity) [1] | LD50 [2] [mg/kg] |
| --- | --- | --- | --- |
| CCCOC(=O)C(C(=O)OCCC)=C1SC2C(S1)N(C(C)=O)CCN2CC (stereo not drawn) [Compound 10] | 4.5 | 2,000 K.U. |  |
| CCCOC(=O)C(C(=O)OCCC)=C1SC2NCCNC2(C)S1.Cl (stereo not drawn) [Compound 96, Di-n-propyl(6-methyl-2,5-diaza-7,9-dithiabicyclo-[4,3,0]-nonane-8-ylidene)malonate hydrochloride salt] | 0.1 | 28.0 K.U. |  |
| CC(C)OC(=O)C(C(=O)OC(C)C)=C1SC2NCCNC2(C)S1 (stereo not drawn) [Compound 97] | 0.2 | 45.0 K.U. |  |
| Cc1ccc(C(C)OC(=O)C(C(=O)OC(C)C)=C2SC3C(S2)N(C)CCN3C)cc1 (stereo not drawn) [Compound 81] | 1.2 | 120 K.U. |  |
| CCOC(=O)C(C(=O)OC(C)c1ccc(Cl)cc1)=C1SC2C(S1)N(C)CCN2C (stereo not drawn) [Compound 83] | 0.8 | 38.6 K.U. |  |
| CCOC(=O)C(C(=O)OC(C)C)=C1SC2C(S1)N(C)CCN2C (stereo not drawn) [Compound 56] | 0 | 16.8 K.U. |  |
| COCC(C)OC(=O)C(C(=O)OC(C)COC)=C1SC2C(S1)N(C)CCN2C (stereo not drawn) [Compound 51] | 0.4 | 18.2 K.U. |  |
| C=CCN1CCN(CC=C)C2SC(=C(C(=O)OCCC)C(=O)OCCC)SC21 (stereo not drawn) [Compound 43] | 0.2 | 51 K.U. |  |
| CCCCOC(=O)C(C(=O)OCCCC)=C1SC2C(S1)N(C)CCN2C (stereo not drawn) [Compound 23] | 1.2 | 10.2 K.U. |  |
| CC(C)OC(=O)C(C(=O)OC(C)C)=C1SC2C(S1)N(C)CCN2C (stereo not drawn) [Compound 16, Diisopropyl(2,5-dimethyl-2,5-diaza-7,9-dithiabicyclo-[4,3,0]-nonane-8-ylidene)malonate] | 0.6 | 32 K.U. |  |
| CCOC(=O)C(C(=O)OCC)=C1SC2NCCNC2S1 (stereo not drawn) [Compound 1] | 2.0 | 225 K.U. |  |
| CCOC(=O)C(C(=O)OC(C)c1ccccc1)=C1SC2C(S1)N(C)CCN2C (stereo not drawn) [Compound 84] | 0.8 | 37 K.U. |  |
| CCOC(=O)C(C(=O)OC)=C1SC2C(S1)N(C)CCN2C (stereo not drawn) [Compound 54] | 0 | 13.4 K.U. |  |
| COc1ccc(COC(=O)C(C(=O)OC(C)C)=C2SC3C(S2)N(C)CCN3C)cc1 (stereo not drawn) [Compound 75, Isopropyl 4-methoxybenzyl(2,5-dimethyl-2,5-diaza-7,9-dithiabicycl-[4,3,0]-nonane-8-ylidene)malonate] | 0 | 20 K.U. |  |
| CCOC(=O)C(C(=O)OCC)=C1SC2C(S1)N(C)CCN2C (stereo not drawn) [Compound 19] | 1.6 | 99 K.U. |  |
| CCCCOC(=O)C(C(=O)OCC)=C1SC2C(S1)N(C)CCN2C (stereo not drawn) [Compound 59] | 0.5 | 109.2 K.U. |  |
| CCN1CCN(CC)C2(C)SC(=C(C(=O)OC(C)C)C(=O)OC(C)C)SC12 (stereo not drawn) [Compound 33] | 1.2 | 925 K.U. |  |
